“Also recorded” adds a separate entry of the source.

These results are taken from patent US20130261147A1, “COMPOSITION FOR PREVENTING OR TREATING DEMENTIA” (priority 2010, published 2013).

In data set [1] the test system is Human Beta Amyloid [1-42] (Aβ42) production in HeLa cell line transfected with Human APP. The data set can be described thus: Inhibition of Aβ42 production, HeLa cell line transfected with Human APP, colorimetric ELISA of culture medium. It counts as cell-based. The following applies: for inhibitory effect on Aβ42 production, dependence on concentration (in words): over the concentrations tested. From the text:
(§1) To investigate in vitro inhibitory activity of Lycoris aurea extracts against beta-amyloid production, a HeLa cell line transfected with Human APP was used. This cell line was provided from Professor Tae-Wan Kim (Department of Pathology, Columbia University Medical Center, New York, N.Y. 10032, USA). For the quantity analysis of major beta-amyloids, Aβ40, and Aβ42, which are resulted from the activity of gamma-secretase secreted from cells, Human Beta Amyloid (Aβ40), and Human Beta Amyloid (Aβ42) Colorimetric ELISA Kit (#KHB3482 and #KHB3442; BioSource International, Inc., USA) were each used.
(§2) The alcohol extracts of Lycoris aurea (CN1-M, see Example 1) with certain concentrations set forth in Table 1 below were added to the cell culture medium (DMEM culture medium #11995; GIBCO) cultured with the transfected HeLa cells, which were then cultured at 37° C. for 8 hours. A transfected HeLa cell culture medium with no treatment, to which no Lycoris aurea alcohol extracts were added, was used as a negative control.
For orientation: An ELISA detects its analyte on a solid surface through an enzyme-linked reagent.

Data set [2] relates to Human Beta Amyloid [1-40] (Aβ40) production in HeLa cell line transfected with Human APP. Nature of the data set: Inhibition of Aβ40 production, HeLa cell line transfected with Human APP, colorimetric ELISA of culture medium. It counts as cell-based. The following applies: for inhibitory effect on Aβ40 production, dependence on concentration (in words): over the concentrations tested.
From the text: as §1, §2

A further data set has as its system alpha-secretase. Nature of the data set: Alpha-secretase activity assay kit with total membrane proteins from HeLa cells. It counts as biochemical. The following applies: for Activity Change Rate of Alpha-Secretase (%) against Negative Control: 100%: No Change; for change of the activity of the alpha-secretase (in words): 0.01 and 0.1 μg/ml. From the text: In order to investigate which secretase is responsible for the inhibitory effects of the compounds on Aβ production, an activity assay kit (#CBA042; Calbiochem, USA) of the alpha-secretase was used. For the alpha-secretase, the total membrane proteins obtained from the HeLa cells (see Test Example 1) were used.

The subject of a further data set is sAPPα. The data set can be described thus: Western blot of sAPPα (product of alpha-secretase activity), band density. It counts as cell-based. Conditions: 0.1 μg/ml; for effect on secretion / production change of sAPPα (in words): Western blot; for Reduction Rate of sAPPα (%) Against Negative Control: band density of Western blot. The procedure:
(§3) Effects of the compounds on the production of a product resulted from the activity of alpha-secretase, sAPPα and a product resulted from the activity of beta-secretase, sAPPβ, were investigated through the Western blot methods of sAPPα and sAPPβ, and the results are shown in FIG. 6. […] The band densities of sAPPα and sAPPβ were measured from the Western blot results of FIG. 6, and the results are shown Table 6 and FIG. 7.
Background: Immunoblotting shows a protein as a band on a membrane.

In the next data set the test system is sAPPβ. The data set can be described thus: Western blot of sAPPβ (product of beta-secretase activity), band density. It counts as cell-based. Conditions: 0.1 μg/ml; for effect on secretion / production change of sAPPβ (in words): Western blot; for Reduction Rate of sAPPβ (%) Against Negative Control: band density of Western blot. The procedure: as §3
The test system of another data set is cells. The data set can be described thus: MTT Cell Proliferation assay, cell death activity. It counts as cell-based. Conditions: 8 hours; for cytotoxicity (in words): up to 10 μg/ml. The method, then:
In order to investigate the cell death activity caused by the compounds, lycoricidine and lycoricidinol, MTT Cell Proliferation assay method was used (ATCC catalog #30-1010K, Manassas, USA). After cells were treated with each compound having various concentrations for 8 hours, viable cells were measured quantitatively, and the results are shown in Table 7 and FIG. 8.
(In general: Tetrazolium dyes change colour on reduction, which living cells bring about.)

Consider `O=C1NC2C(=CC(O)C(O)C2O)c2cc3c(cc21)OCO3` (centres unmarked) [Lycoricidine, lycoricidine], for which the inhibition at 0.01 µg/mL in data set [1] (Homo sapiens, HeLa, 0.01 μg/ml, read-out: Aβ42 Production Inhibitory Rate (%) against Negative Control) is 16%; in data set [2] (Homo sapiens, HeLa, 0.01 μg/ml, read-out: Aβ40 Production Inhibitory Rate (%) against Negative Control), 3.3%. For the same compound, the inhibition at 0.1 µg/mL in data set [1] (Homo sapiens, HeLa, 0.1 μg/ml, read-out: Aβ42 Production Inhibitory Rate (%) against Negative Control) was found to be 81.3%; in data set [2] (Homo sapiens, HeLa, 0.1 μg/ml, read-out: Aβ40 Production Inhibitory Rate (%) against Negative Control), 67%. The inhibition at 1 µg/mL in data set [1] (Homo sapiens, HeLa, 1 μg/ml, read-out: Aβ42 Production Inhibitory Rate (%) against Negative Control) was found to be 97.5%; in data set [2] (Homo sapiens, HeLa, 1 μg/ml, read-out: Aβ40 Production Inhibitory Rate (%) against Negative Control), 92.8%. Besides, the inhibition at 10 µg/mL in data set [1] (Homo sapiens, HeLa, 10 μg/ml, read-out: Aβ42 Production Inhibitory Rate (%) against Negative Control) was determined as 100%; in data set [2] (Homo sapiens, HeLa, 10 μg/ml, read-out: Aβ40 Production Inhibitory Rate (%) against Negative Control) it was 97.2%. Further, the “inhibitory effect on Aβ42 production, dependence on concentration (in words)” value in data set [1] is given as “concentration-dependent”. Moreover, the “inhibitory effect on Aβ40 production, dependence on concentration (in words)” value in data set [2] is on record as “concentration-dependent”. In addition, the results for the “Activity Change Rate of Alpha-Secretase (%) against Negative Control” value in the data set on alpha-secretase (0.01 μg/ml) and in the data set with alpha-secretase (0.1 μg/ml) were 106% and 110%, respectively. Moreover, the “change of the activity of the alpha-secretase (in words)” value with alpha-secretase is “did not change the activity”. In the data set on sAPPα, the “effect on secretion / production change of sAPPα (in words)” value is listed as “did not affect the secretion; also recorded: not significant”. The “Reduction Rate of sAPPα (%) Against Negative Control” value in the data set on sAPPα was 12%. Moreover, in the data set on sAPPβ, the “effect on secretion / production change of sAPPβ (in words)” value is “did not affect the secretion; also recorded: not significant”. Further, the “Reduction Rate of sAPPβ (%) Against Negative Control” value in the data set on sAPPβ stood at 17%. The “Cell Death Rate (%) against Negative Control” value was 4.9% in the data set on cells (0.01 μg/ml), 11.3% with cells (0.1 μg/ml), 19% with cells (1 μg/ml) and 21.1% with cells (10 μg/ml). Moreover, in the data set with cells, the “cytotoxicity (in words)” value is given as “not cytotoxic”.

As to `O=C1NC2C(=CC(O)C(O)C2O)c2cc3c(c(O)c21)OCO3` (centres unmarked) [Lycoricidinol, lycoricidinol], the “Aβ42 Production Inhibitory Rate (%) against Negative Control” value in data set [1] (0.01 μg/ml) came out at 44.0%; in data set [1] (0.1 μg/ml), 97.0%; in data set [1] (1 μg/ml), 100%; in data set [1] (10 μg/ml), 100%. Besides, the “inhibitory effect on Aβ42 production, dependence on concentration (in words)” value in data set [1] was “concentration-dependent”. Besides, the “Aβ40 Production Inhibitory Rate (%) against Negative Control” value came out at 25.0% in data set [2] (0.01 μg/ml), 90.4% in data set [2] (0.1 μg/ml), 97.8% in data set [2] (1 μg/ml) and 98.4% in data set [2] (10 μg/ml). Moreover, the “inhibitory effect on Aβ40 production, dependence on concentration (in words)” value in data set [2] is reported as “concentration-dependent”. The “Activity Change Rate of Alpha-Secretase (%) against Negative Control” value with alpha-secretase (0.01 μg/ml) came to 94%; in the data set with alpha-secretase (0.1 μg/ml) it was 100%. Also, the “change of the activity of the alpha-secretase (in words)” value in the data set with alpha-secretase is recorded as “did not change the activity”. Moreover, the “effect on secretion / production change of sAPPα (in words)” value in the data set with sAPPα was “did not affect the secretion; also recorded: not significant”. For the same compound, the “Reduction Rate of sAPPα (%) Against Negative Control” value with sAPPα was 1.0%. The “effect on secretion / production change of sAPPβ (in words)” value with sAPPβ is listed as “did not affect the secretion; also recorded: not significant”. In the data set on sAPPβ, the “Reduction Rate of sAPPβ (%) Against Negative Control” value came out at 7.5%. Also, the “Cell Death Rate (%) against Negative Control” value with cells (0.01 μg/ml) was 10.3%; in the data set on cells (0.1 μg/ml), 11.6%; in the data set with cells (1 μg/ml), 16.5%; in the data set on cells (10 μg/ml) it was 19.3%. For the same compound, the “cytotoxicity (in words)” value with cells is “not cytotoxic”.
